Data taken from patent publication US20080009019A1, “HIGH THROUGHPUT METHOD FOR SCREENING CANDIDATE COMPOUNDS FOR BIOLOGICAL ACTIVITY” (SmithKline Beecham Corporation, priority 2001, published 2008).

What was measured:
Format in all cases: cell-based
MC1R [1] = molecular target: T1, MC1R (Homo sapiens, UniProt Q01726); assay: Well-based reporter assay
MC1R [2] = molecular target: T1, MC1R; assay: Bead-based lawn assay, peptides photocleaved from beads in lawn of CHO-6CRE-luc+-MC1R cells; design: expressed in transfected cells; conditions: for response value at plateau compared with maximal response to [NDP]-α-MSH: 3-minute UV time point, FIG. 11B versus FIG. 11A; for UV exposure time point at which response began to plateau: 5 beads per peptide pushed into lawn, UV 365 nm for 0, 0.5, 1, 3, 10 minutes, FIG. 11B
Protocol: Agonists for GPCRs were assayed using beads to which peptides or compounds are attached by a photolinker. The beads were either mixed in the agarose or were applied to the surface of the lawn. The attached compound or peptide was cleaved by exposure to UV light.
Cell culture and assay methods were as described in Example 1. Hexamer peptides were linked to 200 micrometer […]™ microsphere beads (polystyrene core with […]™ pegs—available from Rapp Polymere GmbH of Tubingen, Germany) by a photocleavable linker. Two peptides were tested for validation purposes: Peptide 1-Ac-NH-Ser-Val-dHis-dPhe-Arg-Trp (SEQ ID NO:1) and Peptide 2-Ac-NH-Val-Ala-dHis-dPhe-Arg-Tyr (SEQ ID NO:2). Beads were added to the agarose lawn either by pushing the bead into the agarose with forceps or by suspending the beads in the melted agarose/cell mixture. Peptides were cleaved from the beads by exposure to ultraviolet light using a UV lamp set at 365 nm wavelength (λ).
A time course of delivery of MC1R agonist peptides 1 and 2, which were linked to beads (described in methods), to a lawn of CHO-6CRE-luc^+-MC1R cells is shown in FIGS. 10A-10E. The peptides were cleaved from the beads by increasing the time of UV exposure. FIGS. 10A-10E depict UV exposure for 0, 0.5, 1, 3, and 10 minutes, respectively. A concentration-response curve for of [NDP]-α-MSH was run in row 1 on each lawn at the same concentrations as in FIG. 9. Five (5) beads each of peptide 1 and 2 were pushed into the agarose layer with forceps. Peptide 1 and 2 were on the left and right of each lawn, respectively.
FIG. 11A is a line graph representation of the average luminescence of the 5 beads at each time point. The response was calculated by subtracting the background z value for the lawn from the z value for each area to which the bead was applied. The magnitude of response is dictated by both the response of the reporter cell line and the amount of peptide that can be released from the beads. Both peptide 1 and 2 are full agonists for MC1R when tested in a well-based reporter assay so both peptides are capable of eliciting a response similar to [NDP]-α-MSH.

[3] = molecular target: T2, corticotrophin releasing factor receptor (CRHR1) (Homo sapiens, UniProt P34998); assay: Agarose lawn reporter assay, CHO-6xCRE-luc+ cells expressing CRH1 receptor; conditions: approximately 10 nl of 5×10^−4 M to 1.5×10^−6 M peptide solution on lawn by HDR pin tool; 4 hours at 37° C.; FIGS. 7A-7B
T2 construct: expressed in transfected cells
T2 sequence (P34998 24-415): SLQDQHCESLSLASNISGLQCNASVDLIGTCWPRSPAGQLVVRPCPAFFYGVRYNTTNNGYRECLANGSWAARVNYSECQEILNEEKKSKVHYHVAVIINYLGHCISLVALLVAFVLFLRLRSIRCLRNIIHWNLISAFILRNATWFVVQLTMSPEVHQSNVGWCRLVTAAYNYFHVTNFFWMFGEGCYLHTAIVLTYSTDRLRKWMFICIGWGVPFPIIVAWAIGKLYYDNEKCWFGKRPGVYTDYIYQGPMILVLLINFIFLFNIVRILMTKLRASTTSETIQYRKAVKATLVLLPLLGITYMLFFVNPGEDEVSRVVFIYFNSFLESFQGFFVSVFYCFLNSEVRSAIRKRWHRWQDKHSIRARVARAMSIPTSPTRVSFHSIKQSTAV
From the text: Chinese hamster ovary (CHO) cells were transfected with a 6xCRE-luciferase^+reporter gene. A stable host cell line was selected, into which cloned human receptors were transfected. Stable cell lines expressing these receptors were selected for screening purposes.
A reporter gene host cell line stably expressing a reporter construct comprising 6 cyclic AMP response elements (CREs) driving the expression of luciferase (6xCRE-luciferase^+) was generated as described by Goetz et al., (2000) J. Biomolec. Screening 5:377-384. […]
1.5 grams of LMP agarose were dissolved in 100 ml of assay medium (DMEM/F12 medium containing 2% glutamine) in a microwave oven. […] The cells were collected from suspension culture and were re-suspended in 60 ml of assay medium for determination of quantity of cells. […]
Solutions of peptides were then delivered to the lawn using a HDR 96-pin tool that delivers approximately 10 nanoliters (nl) of solution. […] Luminescence was detected using a VIEWLUX® camera.
Images were acquired by focusing luminescent light from the OMNI PLATE® tray, for 90 seconds, onto a CCD camera chip via a telecentric lens. […] The gray intensity was determined by scanning each grid unit to determine where the highest point in the region was located. […] The x and y co-ordinates were recorded to facilitate the production of graphical representations of the data.

T1 sequence (Q01726 whole entry): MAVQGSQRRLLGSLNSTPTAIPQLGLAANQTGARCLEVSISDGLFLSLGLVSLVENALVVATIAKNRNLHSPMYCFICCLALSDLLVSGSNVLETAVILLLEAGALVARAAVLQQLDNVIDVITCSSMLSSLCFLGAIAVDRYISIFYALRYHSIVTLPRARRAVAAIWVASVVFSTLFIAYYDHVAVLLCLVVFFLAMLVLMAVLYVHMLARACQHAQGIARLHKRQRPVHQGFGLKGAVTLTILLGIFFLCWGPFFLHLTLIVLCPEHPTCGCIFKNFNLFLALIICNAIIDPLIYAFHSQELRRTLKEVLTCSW

Substance	agonist character for MC1R (MC1R [1])	response value at plateau compared with maximal response to [NDP]-α-MSH (MC1R [2])	UV exposure time point at which response began to plateau (MC1R [2]) [min]	concentration-response curve of luminescence activity [3]
Ac-NH-Val-Ala-dHis-dPhe-Arg-Tyr [peptide 2]	full agonists	well below the maximal response to [NDP]-α-MSH	3	
Ac-NH-Ser-Val-dHis-dPhe-Arg-Trp [peptide 1]	full agonists	well below the maximal response to [NDP]-α-MSH	3	
corticotrophin releasing factor [CRH]				concentration-response curve of luminescence activity was only observed when peptide was applied to the cell line expressing the appropriate receptor
